Patent US4745196A, “Orally active phosphonyl hydroxyacyl prolines” (E. R. Squibb & Sons, Inc., priority 1986, dated 1988)
Where a name gives a salt, the structure may show the parent alone.

Test system: angiotensin converting enzyme (ACE)
Test: in vivo attenuation of angiotensin I pressor response after oral administration in conscious, normotensive rats
Conditions: maximum during three-hour period, mean of at least four rats
Method: The compounds of formula I were tested in vivo in conscious, normotensive rats. Angiotensin I given intravenously increases blood pressure due to conversion to angiotensin II via the angiotensin converting enzyme (ACE). ACE inhibition was reflected by the attenuation of an angiotensin I pressor response after compound administration. The in vivo testing procedure is described in greater detail by Rubin et al., "SQ14,225 (D-3-Mercapto-2-Methylpropanoyl-L-Proline), A Novel Orally Active Inhibitor Of Angiotensin I Converting Enzyme", J. Pharm. Exp. Therap., Vol. 204, p 271-280 (1978).
The inhibition of the angiotensin I pressor response is expressed as the percentage of the response to angiotensin I obtained before the test compound was administered, and was measured at regular intervals during a three-hour period following the administration of the test compound. The maximum percentage inhibition observed during this period is given in the table as a number from 0 to 100 percent. All results are the mean values obtained for testing of each compound in at least four rats. For compounds tested at more than one dose, it can be observed that increased amounts of compound administered lead to increased levels of inhibition.

[1] = oral dose 0.5 (dose unit not given), dilithium salt
[2] = oral dose 1.5 (dose unit not given), dilithium salt
[3] = oral dose 5 (dose unit not given), dilithium salt
[4] = oral dose 15 (dose unit not given)
[5] = oral dose 5 (dose unit not given)
[6] = oral dose 0.5 (dose unit not given)
[7] = oral dose 1.5 (dose unit not given)

SMILES	Maximum Percent Inhibition of the angiotensin I pressor response [1] [%]	Maximum Percent Inhibition of the angiotensin I pressor response [2] [%]	Maximum Percent Inhibition of the angiotensin I pressor response [3] [%]	Maximum Percent Inhibition of the angiotensin I pressor response [4] [%]	Maximum Percent Inhibition of the angiotensin I pressor response [5] [%]	Maximum Percent Inhibition of the angiotensin I pressor response [6] [%]	Maximum Percent Inhibition of the angiotensin I pressor response [7] [%]	Maximum Percent Inhibition of the angiotensin I pressor response (oral dose 15 (dose unit not given), dilithium salt) [%]
NCCCC[C@H](OP(=O)(O)CCCCc1ccccc1)C(=O)N1CCC[C@H]1C(=O)O [Example 3, (S)-1-[6-Amino-2-[[hydroxy(4-phenylbutyl)phosphinyl]oxy]-1-oxohexyl]-L-proline, dilithium salt]	20.90	74.00	91.00	97.10	–	–	–	–
CCCCCP(=O)(O)O[C@@H](CCCCN)C(=O)N1CCC[C@H]1C(=O)O [Example 7, 1-[(S)-6-Amino-2-[(hydroxypentylphosphinyl)oxy]-1-oxohexyl]-L-proline]	–	–	–	–	57.20	–	–	–
CCCCCCCCP(=O)(O)O[C@@H](CCCCN)C(=O)N1CCC[C@H]1C(=O)O [Example 12, (S)-1-[6-Amino-2-[(octylhydroxyphosphinyl)oxy]-1-oxohexyl]-L-proline, dilithium salt]	–	–	–	93.60	82.60	16.80	51.10	–
NCCCC[C@H](OP(=O)(O)CCCCc1ccccc1)C(=O)N1CCC[C@H]1C(=O)O [Example 4, (S)-1-[6-Amino-2-[[hydroxy(4-phenylbutyl)phosphinyl]oxy]-1-oxohexyl]-L-proline]	–	–	–	–	89.90	46.60	69.00	–
CCCCCCP(=O)(O)O[C@@H](CCCCN)C(=O)N1CCC[C@H]1C(=O)O [Example 8, (S)-1-[6-Amino-2-[(hexylhydroxyphosphinyl)oxy]-1-oxohexyl]-L-proline, dilithium salt]	19.70	72.40	82.70	–	–	–	–	85.50
NCCCC[C@H](OP(=O)(O)CCCc1ccccc1)C(=O)N1CCC[C@H]1C(=O)O [Example 2, (S)-1-[6-Amino-2-[[hydroxy(3-phenylpropyl)phosphinyl]oxy]-1-oxohexyl]-L-proline]	–	–	–	–	66.70	–	32.30	–
NCCCC[C@H](OP(=O)(O)CCCCc1ccc(F)cc1)C(=O)N1CCC[C@H]1C(=O)O [Example 5, (S)-1-[6-Amino-2-[[[4-(4-fluorophenyl)butyl]hydroxyphosphinyl]oxy]-1-oxohexyl]-L-proline]	–	–	–	–	80.50	22.20	69.00	–
NCCCC[C@H](OP(=O)(O)CCCCCc1ccccc1)C(=O)N1CCC[C@H]1C(=O)O [Example 6, (S)-1-[6-Amino-2-[[hydroxy(5-phenylpentyl)phosphinyl]oxy]-1-oxohexyl]-L-proline]	–	–	–	–	64.70	–	–	–
CCCCCCCP(=O)(O)O[C@@H](CCCCN)C(=O)N1CCC[C@H]1C(=O)O [Example 10, 1-[(S)-6-Amino-2-[(heptylhydroxyphosphinyl)oxy]-1-oxohexyl]-L-proline]	–	–	–	–	75.00	45.00	66.00	–
NCCCC[C@H](OP(=O)(O)CCc1ccccc1)C(=O)N1CCC[C@H]1C(=O)O [Example 1, (S)-1-[6-Amino-2-[[hydroxy(2-phenylethyl)phosphinyl]oxy]-1-oxohexyl]-L-proline, dilithium salt]	–	–	–	–	64.50	–	50.30	–
CCCCCCP(=O)(O)O[C@@H](CCCCN)C(=O)N1CCC[C@H]1C(=O)O [Example 9, (S)-1-[6-Amino-2-[(hexylhydroxyphosphinyl)oxy]-1-oxohexyl]-L-proline]	–	–	–	90.30	82.10	17.90	66.50	–
